Measurements from the CheMixHub viscosity set.

Experiment: xn = mol fraction of the nth substance listed

COC(=O)c1ccccc1 + COCCO
viscosity [mPa·s], 101 kPa
Details | x2 = 0.0991 | x2 = 0.2001 | x2 = 0.3023 | x2 = 0.3992 | x2 = 0.4989 | x2 = 0.5981 | x2 = 0.699 | x2 = 0.7991 | x2 = 0.8983
298.15 K | 1.735 | 1.689 | 1.686 | 1.675 | 1.646 | 1.675 | 1.668 | 1.699 | 1.693
303.15 K | 1.571 | 1.523 | 1.524 | 1.511 | 1.478 | 1.508 | 1.5 | 1.525 | 1.522
308.15 K | 1.427 | 1.385 | 1.378 | 1.366 | 1.34 | 1.362 | 1.356 | 1.375 | 1.372

CCCCCCBr + C1COCCO1
303.15 K, 101.3 kPa
Details | viscosity [mPa·s]
x2 = 0.1105 | 0.8848
x2 = 0.3021 | 0.8777
x2 = 0.4972 | 0.9007
x2 = 0.698 | 0.947
x2 = 0.8997 | 1.03

O=C(O)CC(=O)O + C[N+](C)(C)CCO.[Cl-]
viscosity [mPa·s]
Details | 293.15 K | 293.2 K | 298.15 K | 303.15 K | 303.2 K | 308.15 K | 313.15 K | 313.2 K | 318.15 K | 323.15 K
100 kPa, x2 = 0.5 | 2016 | – | 1389 | 982.9 | – | 710.7 | 524.5 | – | 393.9 | 301.2
101 kPa, x2 = 0.5 | 1651 | – | 1084 | 679.6 | – | 486.4 | 372.5 | – | 286.5 | 207.2
101.3 kPa, x2 = 0.502 | – | 1600 | – | – | 1029 | – | – | 615 | – | –

CCOCCOCCOCC + ClC(Cl)(Cl)Cl
298.15 K, 101 kPa
Details | viscosity [mPa·s]
x1 = 0.0066 | 0.914
x1 = 0.0198 | 0.932
x1 = 0.0498 | 0.975
x1 = 0.0871 | 1.016
x1 = 0.127 | 1.051
x1 = 0.1781 | 1.093
x1 = 0.2051 | 1.115
x1 = 0.2354 | 1.134
x1 = 0.2797 | 1.161
x1 = 0.3206 | 1.18
x1 = 0.3371 | 1.189
x1 = 0.3614 | 1.202
x1 = 0.3768 | 1.21
x1 = 0.4165 | 1.225
x1 = 0.4689 | 1.241
x1 = 0.5264 | 1.257
x1 = 0.5651 | 1.269
x1 = 0.599 | 1.269
x1 = 0.6708 | 1.274
x1 = 0.715 | 1.286
x1 = 0.7943 | 1.293
x1 = 0.8245 | 1.283
x1 = 0.8784 | 1.282
x1 = 0.9126 | 1.282
x1 = 0.9535 | 1.273

CCCCCCBr + ClC(Cl)(Cl)Cl
101 kPa
Details | viscosity [mPa·s]
298.15 K, x1 = 0.1135 | 0.8881
298.15 K, x1 = 0.1518 | 0.8858
298.15 K, x1 = 0.1823 | 0.8835
298.15 K, x1 = 0.2319 | 0.8822
298.15 K, x1 = 0.3098 | 0.8844
298.15 K, x1 = 0.474 | 0.8943
298.15 K, x1 = 0.6449 | 0.9113
303.45 K, x1 = 0.0686 | 0.8329
303.45 K, x1 = 0.0894 | 0.8281
303.45 K, x1 = 0.1554 | 0.8277
303.45 K, x1 = 0.1952 | 0.8288
303.45 K, x1 = 0.2666 | 0.8328
303.45 K, x1 = 0.424 | 0.8436
303.45 K, x1 = 0.5955 | 0.8555
303.45 K, x1 = 0.7896 | 0.8708
313.35 K, x1 = 0.0691 | 0.7236
313.35 K, x1 = 0.0909 | 0.723
313.35 K, x1 = 0.1303 | 0.7251
313.35 K, x1 = 0.1568 | 0.7252
313.35 K, x1 = 0.1996 | 0.7259
313.35 K, x1 = 0.2736 | 0.7309
313.35 K, x1 = 0.5015 | 0.7462
313.35 K, x1 = 0.7896 | 0.7649
